# Assay results taken from the supplement of paper PMC10307832.
# Tests used:
# Assay in all cases: relative viability (nuclei count vs DMSO), 5 days (fraction); higher = more cells survive
# ChaGo-K-1 = system: ChaGo-K-1
# In short: (§1)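 Dosing by pin tool came one day after lung cancer cell lines were seeded in 1536-well plates, using either one drug or a fixed anchor-drug dose plus five library-drug doses (not always all listed) in √10 steps. After 5 days, nuclei were counted on 4× images. Relative viability is treated-well nuclei count divided by vehicle-well nuclei count, and values are medians of duplicate plates.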
# EKVX = system: EKVX
# In short: as §1
# EMC-BAC-2 = system: EMC-BAC-2
# In short: as §1
# EPLC-272H = system: EPLC-272H
# In short: as §1
# HCC-78 = system: HCC-78
# In short: as §1
# HCC-827 = system: HCC-827
# In short: as §1
# LCLC-103H = system: LCLC-103H
# In short: as §1
# LK-2 = system: LK-2
# In short: as §1
# LU99A = system: LU99A
# In short: as §1
# LXF-289 = system: LXF-289
# In short: as §1
# NCI-H1666 = system: NCI-H1666
# In short: as §1
# NCI-H1975 = system: NCI-H1975
# In short: as §1
# NCI-H2126 = system: NCI-H2126
# In short: as §1
# NCI-H2342 = system: NCI-H2342
# In short: as §1
# NCI-H23 = system: NCI-H23
# In short: as §1
# NCI-H2405 = system: NCI-H2405
# In short: as §1
# NCI-H322M = system: NCI-H322M
# In short: as §1
# PC-14 = system: PC-14
# In short: as §1
# RERF-LC-KJ = system: RERF-LC-KJ
# In short: as §1
# SK-LU-1 = system: SK-LU-1
# In short: as §1
# SW 1573 = system: SW 1573
# In short: as §1
# SW 900 = system: SW 900
# In short: as §1
smiles,measurement,setting,value
O=c1cc(-c2cccc3c2Sc2ccccc2S3)oc(N2CCOCC2)c1 + O=C(c1cc(Cc2n[nH]c(=O)c3ccccc23)ccc1F)N1CCN(C(=O)C2CC2)CC1 [Olaparib] (partner 8 µM),relative viability,ChaGo-K-1; first compound 0.08 µM,0.503
same,relative viability,ChaGo-K-1; first compound 0.253 µM,0.494
same,relative viability,ChaGo-K-1; first compound 0.8 µM,0.415
same,relative viability,ChaGo-K-1; first compound 2.53 µM,0.466
same,relative viability,ChaGo-K-1; first compound 8 µM,0.411
same,relative viability,EKVX; first compound 0.08 µM,0.829
same,relative viability,EKVX; first compound 0.253 µM,0.852
same,relative viability,EKVX; first compound 0.8 µM,0.623
same,relative viability,EKVX; first compound 2.53 µM,0.803
same,relative viability,EKVX; first compound 8 µM,1.05
same,relative viability,EMC-BAC-2; first compound 0.08 µM,0.523
same,relative viability,EMC-BAC-2; first compound 0.253 µM,0.568
same,relative viability,EMC-BAC-2; first compound 0.8 µM,0.518
same,relative viability,EMC-BAC-2; first compound 2.53 µM,0.571
same,relative viability,EMC-BAC-2; first compound 8 µM,0.514
same,relative viability,EPLC-272H; first compound 0.08 µM,0.986
same,relative viability,EPLC-272H; first compound 0.253 µM,0.896
same,relative viability,EPLC-272H; first compound 0.8 µM,0.998
same,relative viability,EPLC-272H; first compound 2.53 µM,0.774
same,relative viability,EPLC-272H; first compound 8 µM,0.483
same,relative viability,HCC-78; first compound 0.08 µM,0.792
same,relative viability,HCC-78; first compound 0.253 µM,0.853
same,relative viability,HCC-78; first compound 0.8 µM,0.935
same,relative viability,HCC-78; first compound 2.53 µM,0.839
same,relative viability,HCC-78; first compound 8 µM,0.734
same,relative viability,HCC-827; first compound 0.08 µM,0.621
same,relative viability,HCC-827; first compound 0.253 µM,0.716
same,relative viability,HCC-827; first compound 0.8 µM,0.677
same,relative viability,HCC-827; first compound 2.53 µM,0.588
same,relative viability,HCC-827; first compound 8 µM,0.768
same,relative viability,LCLC-103H; first compound 0.08 µM,0.765
same,relative viability,LCLC-103H; first compound 0.253 µM,0.776
same,relative viability,LCLC-103H; first compound 0.8 µM,0.873
same,relative viability,LCLC-103H; first compound 2.53 µM,0.736
same,relative viability,LCLC-103H; first compound 8 µM,0.71
same,relative viability,LK-2; first compound 0.08 µM,0.833
same,relative viability,LK-2; first compound 0.253 µM,0.793
same,relative viability,LK-2; first compound 0.8 µM,0.79
same,relative viability,LK-2; first compound 2.53 µM,0.62
same,relative viability,LK-2; first compound 8 µM,0.749
same,relative viability,LU99A; first compound 0.08 µM,0.251
same,relative viability,LU99A; first compound 0.253 µM,0.298
same,relative viability,LU99A; first compound 0.8 µM,0.296
same,relative viability,LU99A; first compound 2.53 µM,0.245
same,relative viability,LU99A; first compound 8 µM,0.214
same,relative viability,LXF-289; first compound 0.08 µM,1.17
same,relative viability,LXF-289; first compound 0.253 µM,1.36
same,relative viability,LXF-289; first compound 0.8 µM,1.18
same,relative viability,LXF-289; first compound 2.53 µM,1.11
same,relative viability,LXF-289; first compound 8 µM,1.21
same,relative viability,NCI-H1666; first compound 0.08 µM,0.691
same,relative viability,NCI-H1666; first compound 0.253 µM,0.733
same,relative viability,NCI-H1666; first compound 0.8 µM,0.681
same,relative viability,NCI-H1666; first compound 2.53 µM,0.691
same,relative viability,NCI-H1666; first compound 8 µM,0.671
same,relative viability,NCI-H1975; first compound 0.08 µM,0.831
same,relative viability,NCI-H1975; first compound 0.253 µM,0.94
same,relative viability,NCI-H1975; first compound 0.8 µM,0.737
same,relative viability,NCI-H1975; first compound 2.53 µM,0.666
same,relative viability,NCI-H1975; first compound 8 µM,0.598
same,relative viability,NCI-H2126; first compound 0.08 µM,1.06
same,relative viability,NCI-H2126; first compound 0.253 µM,0.991
same,relative viability,NCI-H2126; first compound 0.8 µM,1.01
same,relative viability,NCI-H2126; first compound 2.53 µM,0.9
same,relative viability,NCI-H2126; first compound 8 µM,0.91
same,relative viability,NCI-H2342; first compound 0.08 µM,0.52
same,relative viability,NCI-H2342; first compound 0.253 µM,0.419
same,relative viability,NCI-H2342; first compound 0.8 µM,0.476
same,relative viability,NCI-H2342; first compound 2.53 µM,0.471
same,relative viability,NCI-H2342; first compound 8 µM,0.423
same,relative viability,NCI-H23; first compound 0.08 µM,0.313
same,relative viability,NCI-H23; first compound 0.253 µM,0.309
same,relative viability,NCI-H23; first compound 0.8 µM,0.24
same,relative viability,NCI-H23; first compound 2.53 µM,0.269
same,relative viability,NCI-H23; first compound 8 µM,0.268
same,relative viability,NCI-H2405; first compound 0.08 µM,0.861
same,relative viability,NCI-H2405; first compound 0.253 µM,1.04
same,relative viability,NCI-H2405; first compound 0.8 µM,0.791
same,relative viability,NCI-H2405; first compound 2.53 µM,0.8
same,relative viability,NCI-H2405; first compound 8 µM,0.936
same,relative viability,NCI-H322M; first compound 0.08 µM,0.523
same,relative viability,NCI-H322M; first compound 0.253 µM,0.751
same,relative viability,NCI-H322M; first compound 0.8 µM,0.746
same,relative viability,NCI-H322M; first compound 2.53 µM,0.811
same,relative viability,NCI-H322M; first compound 8 µM,0.729
same,relative viability,PC-14; first compound 0.08 µM,0.232
same,relative viability,PC-14; first compound 0.253 µM,0.214
same,relative viability,PC-14; first compound 0.8 µM,0.237
same,relative viability,PC-14; first compound 2.53 µM,0.169
same,relative viability,PC-14; first compound 8 µM,0.165
same,relative viability,RERF-LC-KJ; first compound 0.08 µM,1.08
same,relative viability,RERF-LC-KJ; first compound 0.253 µM,1.07
same,relative viability,RERF-LC-KJ; first compound 0.8 µM,0.9
same,relative viability,RERF-LC-KJ; first compound 2.53 µM,0.977
same,relative viability,RERF-LC-KJ; first compound 8 µM,0.843
same,relative viability,SK-LU-1; first compound 0.08 µM,0.582
same,relative viability,SK-LU-1; first compound 0.253 µM,0.713
same,relative viability,SK-LU-1; first compound 0.8 µM,0.524
same,relative viability,SK-LU-1; first compound 2.53 µM,0.503
same,relative viability,SK-LU-1; first compound 8 µM,0.463
same,relative viability,SW 1573; first compound 0.08 µM,0.513
same,relative viability,SW 1573; first compound 0.253 µM,0.574
same,relative viability,SW 1573; first compound 0.8 µM,0.613
same,relative viability,SW 1573; first compound 2.53 µM,0.487
same,relative viability,SW 1573; first compound 8 µM,0.44
same,relative viability,SW 900; first compound 0.253 µM,0.999
same,relative viability,SW 900; first compound 0.8 µM,0.824
same,relative viability,SW 900; first compound 2.53 µM,0.702
same,relative viability,SW 900; first compound 8 µM,0.773
